Key:
WT EGFR (A431 cells) = WT EGFR (A431 cells) (Homo sapiens (Human), UniProt P00533); assay: EGFR signaling immunoblot (1 hr) in A431 cells; assay type: cell-based
Protocol: (§1) A431 human epidermoid carcinoma, H1975 human NSCLC and HCC827 human NSCLC adenocarcinoma cells were obtained from the American Type Culture Center (Manassas, Va.). A431 cells were grown in DMEM (Invitrogen, Carlsbad, Calif.) supplemented with 10% FBS (HyClone, South Logan, Utah) and 1% Penicillin-Streptomycin (P/S, Lonza, Walkersville, Md.).
(§2) All primary antibodies were obtained from Cell Signaling (Danvers, Mass.) and used at 1:1000. Secondary antibodies were used at 1:10,000. Goat anti-mouse IgG IRDye 800CW antibody was obtained from LiCor Biosciences (Lincoln, Nebr.) and goat anti-rabbit IgG Alexa Fluor 680 was obtained from Invitrogen.
(§3) Cells were grown in 12-well plates (Corning, Coring, N.Y.) to 90% confluence and then incubated in low-serum (0.1% FBS) media for 16-18 hr. […] A431 cells were then stimulated with 50 ng/ml EGF (Peprotech, Rocky Hill, N.J.) for 15 min. After treatment, cell monolayers were washed with cold PBS (Invitrogen) and immediately lysed by scrapping into 60 uL cold Cell Extraction Buffer (Invitrogen) supplemented with Complete Protease inhibitors (Roche, Indianapolis, Ind.) and PhosphoSTOP (Roche) phosphatase inhibitors.
(§4) Phospho-protein signals were quantitated using Odyssey Infrared Imaging (Li-Cor Biosciences).
Blots were normalized as indicated above. […]

[1] = molecular target: EGFR L858R/T790M (H1975 cells) (Homo sapiens (Human), UniProt P00533, L858R/T790M); assay: EGFR signaling immunoblot (1 hr) in H1975 cells; assay type: cell-based
Protocol: as §1, §2, §3, §4
Blots were normalized as indicated above. […] Normalized data was fitted using a sigmoidal curve analysis program (Graph Pad Prism version 5) with variable Hill slope to determine the EC50 values.

A431 cells (WT EGFR) = assay: Cell proliferation (CellTiter Glo, 72 hr), A431; assay type: cell-based; settings: Homo sapiens, A-431; A431 cells, 72 hr; read-out: WT EGFR GI50
Protocol: as §1
(§5) Growth inhibition (GI50) values were determined by Graph Pad Prism.

[2] = test system: H1975 cells (EGFR L858R/T790M); assay: Cell proliferation (CellTiter Glo, 72 hr), H1975; assay type: cell-based, human
Protocol: as §1, §5

[3] = test system: HCC827 cells (EGFR delE746-A750); assay: Cell proliferation (CellTiter Glo, 72 hr), HCC827; assay type: cell-based, human
Protocol: as §1, §5

EGFR T790M/L858R = EGFR T790M/L858R (Homo sapiens (Human), UniProt P00533, L858R/T790M); settings: MS analysis

SMILES: C=CC(=O)Nc1cccc(Oc2nc(Nc3ccc(OC)c(OC)c3OC)ncc2Cl)c1 [Compound I-7, N-(3-(5-chloro-2-(2,3,4-trimethoxyphenylamino)pyrimidin-4-yloxy)phenyl)acrylamide]
- WT-EGFR sparing in A431 cells (pEGFR, pS6) (WT EGFR (A431 cells)): completely WT-EGFR sparing
- inhibition of pEGFR and downstream S6 Ribosomal protein in H1975 cells ([1]; H1975 vs A431, FIG. 1 and 2): mutant selective
- Ratio WT/mutant ([1]; signaling EC50, WT (A431) vs H1975): >50
- GI50 (A431 cells (WT EGFR)): > 1000 nM
- GI50 ([2]; Homo sapiens, NCI-H1975, H1975 cells, 72 hr, read-out: H1975 GI50): 100 to 500 nM
- Ratio WT/mutant ([2]; proliferation GI50, WT (A431) vs H1975): >10
- GI50 ([3]; Homo sapiens, HCC827 cells, 72 hr, read-out: HCC827 GI50): 100 to 500 nM
- Ratio WT/mutant ([3]; proliferation GI50, WT (A431) vs HCC827): >15
- covalent modification of EGFR T790M/L858R (EGFR T790M/L858R): covalently modify

From US10081606B2, “Heteroaryl compounds and uses thereof” (Celgene CAR LLC, priority 2010, dated 2018)
